Among the data in patent US6245817A, “NPY5 receptor antagonists and methods for using same” (Bayer Corporation, priority 1999, dated 2001) are IC50 values, retold here.

One test addresses T1, Human NPY5 Receptor (Homo sapiens, UniProt Q15761).
T1 sequence (Q15761 1-445): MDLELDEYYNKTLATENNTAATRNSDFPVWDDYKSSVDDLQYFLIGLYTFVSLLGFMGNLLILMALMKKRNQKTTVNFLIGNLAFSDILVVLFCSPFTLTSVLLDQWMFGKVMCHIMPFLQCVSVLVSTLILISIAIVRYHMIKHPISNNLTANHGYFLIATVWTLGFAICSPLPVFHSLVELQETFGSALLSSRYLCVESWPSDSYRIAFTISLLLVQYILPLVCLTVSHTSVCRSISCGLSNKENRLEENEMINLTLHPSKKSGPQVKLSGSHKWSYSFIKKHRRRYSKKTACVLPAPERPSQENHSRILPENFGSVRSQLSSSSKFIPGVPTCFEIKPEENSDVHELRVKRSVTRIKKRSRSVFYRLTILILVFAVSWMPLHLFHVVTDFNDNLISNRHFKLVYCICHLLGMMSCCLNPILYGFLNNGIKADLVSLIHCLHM
Put plainly: Human NPY5 Receptor Binding Assay. The note with it: [125I]PYY; read-out: hNPY5 IC50.

Another test deals with T2, Rat NPY5 Receptor (Rattus norvegicus, UniProt Q63634).
T2 sequence (Q63634 1-445): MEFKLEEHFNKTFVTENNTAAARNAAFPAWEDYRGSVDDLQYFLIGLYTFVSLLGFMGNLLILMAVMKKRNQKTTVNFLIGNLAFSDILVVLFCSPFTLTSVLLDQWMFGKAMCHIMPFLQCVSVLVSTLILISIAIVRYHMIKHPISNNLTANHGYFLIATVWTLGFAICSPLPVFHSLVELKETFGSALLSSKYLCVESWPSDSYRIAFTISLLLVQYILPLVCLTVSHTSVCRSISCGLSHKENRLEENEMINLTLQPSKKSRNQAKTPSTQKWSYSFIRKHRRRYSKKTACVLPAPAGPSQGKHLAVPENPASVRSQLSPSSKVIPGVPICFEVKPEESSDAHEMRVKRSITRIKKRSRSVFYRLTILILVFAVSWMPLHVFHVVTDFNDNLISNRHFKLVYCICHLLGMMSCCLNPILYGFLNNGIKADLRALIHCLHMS
Put plainly: Rat NPY5 Receptor Binding Assay. The note with it: [125I]PYY; read-out: rNPY5 IC50.

Description for Human NPY5 Receptor: Human and Rat NPY5 Receptor Binding Assays
Binding assays are performed on GF/C Millipore 96-well plates pretreated with 0.02% polyethylenimine. The binding buffer is 25 mM Tris, 120 mM NaCl, 5 mM KCl, 1.2 mM KH2 PO4, 2.5 mM CaCl2, 1.2 mM MgSO4, 0.1% BSA and 0.5 mg/ml bacitracin, pH 7.4. Samples consist of membrane protein, 75-100 pM [125I]PYY (porcine, NEN-DuPont) and drug dilution. Nonspecific binding is defined by 1 μM PYY. After a 2 hour incubation at room temperature with constant mixing, the samples are aspirated on a vacuum manifold, and rinsed with ice-cold binding buffer. The amount of radioactivity in each well is quantitated with either gamma counting or liquid scintillation. IC50 values, which correspond to 50% inhibition of specific binding, are determined with non-linear regression analysis.

The term IC50 denotes the midpoint of a concentration-inhibition curve. `Cn1c(CO)cnc1SCC(=O)Nc1ccc(C(=O)c2ccccc2)cc1` [Compound 121, N-(4-Benzoyl-phenyl)-2-(5-hydroxymethyl-1-methyl-1H-imidazol-2-ylsulfanyl)acetamide]: the IC50 on Human NPY5 Receptor turned out to be 910 nM; on Rat NPY5 Receptor it was 2800 nM.

For `O=C(CSc1nccc(C(F)(F)F)n1)Nc1ccc(C(=O)c2ccccc2)cc1` [Compound 83, N-(4-Benzoyl-phenyl)-2-(4-trifluoromethylpyrimidin-2-ylsulfanyl)-acetamide], the values for the IC50 at Human NPY5 Receptor and at Rat NPY5 Receptor were 210 nM and 200 nM, respectively.

For the compound `Cc1nnc(SCC(=O)Nc2ccc(C(=O)c3ccccc3)cc2)s1` [Compound 86, N-(4-Benzoyl-phenyl)-2-(5-methyl-[1,3,4]thiadiazol-2-ylsulfanyl)-acetamide], the IC50 on Human NPY5 Receptor was 170 nM; at Rat NPY5 Receptor, 150 nM.

For `COC(=O)c1cnc(SCC(=O)Nc2ccc(C3CCCCC3)cc2)n1C` [Compound 115], the results for the IC50 on Human NPY5 Receptor and at Rat NPY5 Receptor were 900 nM and 360 nM, respectively.

On to `Cc1nnc(SCC(=O)Nc2ccc(C3CCCCC3)cc2)s1` [Compound 91, N-(4-Cyclohexyl-phenyl)-2-(5-methyl [1,3,4]thiadiazol-2-ylsulfanyl)-acetamide], for which the results for the IC50 at Human NPY5 Receptor and at Rat NPY5 Receptor were 80 nM and 84 nM, respectively.

For `O=C(CSCc1ccco1)Nc1ccc(C(=O)c2ccccc2)cc1` [Compound 110, N-(4-Benzoyl-phenyl)-2-(furan-2-ylmethylsulfanyl)-acetamide], the IC50 stood at 290 nM on Human NPY5 Receptor and 340 nM on Rat NPY5 Receptor.

As for `Nc1cccc(SCC(=O)Nc2ccc(C3CCCCC3)cc2)c1` [Compound 98, 2-(3-Amino-phenylsulfanyl)-N-(4-cyclohexyl-phenyl)-acetamide], the IC50 at Human NPY5 Receptor worked out at 320 nM; on Rat NPY5 Receptor, 290 nM.

Turning to `O=C(CSCc1cccc(CS)c1)Nc1ccc(C(=O)c2ccccc2)cc1` [Compound 101, N-(4-Benzoyl-phenyl)-2-(3-mercaptomethyl-benzylsulfanyl)-acetamide], the IC50 was determined as 1400 nM at Human NPY5 Receptor and 1500 nM at Rat NPY5 Receptor.

With `O=C(CSc1nnc(-c2ccccc2)o1)Nc1ccc(C2CCCCC2)cc1` [Compound 94, N-(4-Cyclohexyl-phenyl)-2-(5-phenyl-[1,3,4]oxadiazo-2-ylsulfanyl)-acetamide], the IC50 on Human NPY5 Receptor came out at 670 nM; at Rat NPY5 Receptor, 1200 nM.

On to `O=C(CSc1nnc(-c2ccco2)[nH]1)Nc1ccc(C2CCCCC2)cc1` [Compound 111, N-(4-Cyclohexyl-phenyl)-2-(5-furan-2-yl-4H-[1,2,4]triazol-3-ylsulfanyl)-acetamide], for which the IC50 was determined as 1400 nM at Human NPY5 Receptor and 570 nM on Rat NPY5 Receptor.

For the compound `Cn1c(CO)cnc1SCC(=O)Nc1ccc(C2CCCCC2)cc1` [Compound 114, N-(4-Cyclohexyl-phenyl)-2-(5-hydroxymethyl-1-methyl-1H-imidazol-2-ylsulfanyl)-acetamide], the IC50 stood at 900 nM at Human NPY5 Receptor and 390 nM on Rat NPY5 Receptor.

`CSc1sc(-c2nnc(SCC(=O)Nc3ccc(C(=O)c4ccccc4)cc3)n2C)c2c1C=CCC2` [Compound 119]: the half-inhibitory concentration (IC50) is 630 nM at Human NPY5 Receptor and 1500 nM on Rat NPY5 Receptor.

For `CC(Sc1nnnn1C)C(=O)Nc1ccc(C(C)(C)C)cc1` (stereo not drawn) [Compound 125, N-(4-tert-Butyl-phenyl)-2-(1-methyl-1H-tetrazol-5-ylsulfanyl)-propionamide], the IC50 at Human NPY5 Receptor was 1000 nM; on Rat NPY5 Receptor it was 360 nM.

Turning to `O=C(CSc1nnnn1-c1ccc(O)cc1)Nc1ccc(C2CCCCC2)cc1` [Compound 92, N-(4-Cyclohexyl-phenyl)-2-[1-(4-hydroxy-phenyl)-1H-tetrazo-ylsulfanyl]-acetamide], the IC50 was determined as 81 nM on Human NPY5 Receptor and 72 nM on Rat NPY5 Receptor.

For the compound `O=C(CSc1nc(-c2ccccc2)no1)Nc1ccc(C(=O)c2ccccc2)cc1` [Compound 85, N-(4-Benzoyl-phenyl)-2-(3-phenyl-[1,2,4]oxadiazol-ylsulfanyl)-acetamide], the IC50 worked out at 200 nM on Human NPY5 Receptor and 220 nM on Rat NPY5 Receptor.

As to `O=C(CSc1nnc(CSCCOc2ccc(Cl)cc2Cl)o1)Nc1ccc(C(=O)c2ccccc2)cc1` [Compound 124], the IC50 was more than 1000 nM at Human NPY5 Receptor and 2300 nM at Rat NPY5 Receptor.

For `COC(=O)c1cnc(SCC(=O)Nc2ccc(C(=O)c3ccccc3)cc2)n1C` [Compound 122, 2-[(4-Benzoyl-phenylcarbamoyl)-methylsulfanyl]-3-methyl-3H-imidazole-4-carboxylic acid methyl ester], the IC50 was 1500 nM on Human NPY5 Receptor and more than 1000 nM on Rat NPY5 Receptor.

Consider `Nc1cccc(SCC(=O)Nc2ccc(C(=O)c3ccccc3)cc2)c1` [Compound 102, 2-(3-Amino-phenylsulfanyl)-N-(4-benzoyl-phenyl)-acetamide], for which the figures for the IC50 at Human NPY5 Receptor and at Rat NPY5 Receptor were 340 nM and 310 nM, respectively.

As to `CSc1sc(-c2nnc(SCC(=O)Nc3ccc(C4CCCCC4)cc3)n2C)c2c1C=CCC2` [Compound 112, N-(4-Cyclohexyl-phenyl)-2-[4-methyl-5-(3-methylsulfanyl-6,7-dihydro-benzo[C]thiophen-1-yl)-4H-[1,2,4]triazol-3-ylsulfanyl]-acetamide], at Rat NPY5 Receptor, the IC50 was more than 1000 nM.

Take `Cc1nc(SCC(=O)Nc2ccc(C(=O)c3ccccc3)cc2)n[nH]1` [Compound 81, N-(4-Benzoyl-phenyl)-2-(5-methyl-1H-[1,2,4]triazol-3-ylsulfanyl)-acetamide]: the IC50 on Rat NPY5 Receptor is more than 1000 nM.

As to `CSc1ccc(SCC(=O)Nc2ccc(C(=O)c3ccccc3)cc2)cc1` [Compound 108, N-(4-Benzoyl-phenyl)-2-(4-methylsulfanyl-phenylsulfanyl)-acetamide], on Rat NPY5 Receptor, the IC50 is more than 1000 nM.

Consider `Cn1nnnc1SCC(=O)Nc1ccc2c(c1)Cc1ccccc1-2` [Compound 130, N-(9H-Fluoren-2-yl)-2-(1-methyl-1H-tetrazol-5-ylsulfanyl)-acetamide], for which the results for the IC50 at Human NPY5 Receptor and at Rat NPY5 Receptor were 160 nM and 150 nM, respectively.

`Cn1nnnc1SCC(=O)N1CCCCCC1` [Compound 129, 1-Azepan-1-yl-2-(1-methyl-1H-tetrazol-5-ylsulfanyl)-ethanone]: at Rat NPY5 Receptor, the IC50 is more than 1000 nM.

`O=C(CSc1ccc2ccccc2n1)Nc1ccc(C2CCCCC2)cc1` [Compound 95, N-(4-Cyclohexyl-phenyl)-2-(quinolin-2-ylsulfanyl)-acetamide]: on Rat NPY5 Receptor, the IC50 is more than 1000 nM.

For `Nc1nc(S)nc(SCC(=O)Nc2ccc(C(=O)c3ccccc3)cc2)n1` [Compound 105, 2-(4-Amino-mercapto-[1,3,5]triazin-2-ylsulfanyl)-N-(4-benzoyl-phenyl)-acetamide], the IC50 on Rat NPY5 Receptor was more than 1000 nM.

`O=C(COc1ccccc1)Nc1ccc(C(=O)c2ccccc2)cc1` [Compound 134, N-(4-Benzoyl-phenyl)-2-phenoxy-acetamide]: the IC50 on Rat NPY5 Receptor is more than 1000 nM.

In the case of `Cc1cnc(SCC(=O)Nc2ccc(C(=O)c3ccccc3)cc2)nc1S` [Compound 104, N-(4-Benzoyl-phenyl)-2-(4-mercapt-5-methyl-pyrimidin-2-ylsulfanyl)-acetamide], the IC50 at Rat NPY5 Receptor was more than 1000 nM.

`O=C(CSc1ccnc2cc(C(F)(F)F)ccc12)Nc1ccc(C(=O)c2ccccc2)cc1` [Compound 88, N-(4-Benzoyl-phenyl)-2-(7-trifluoromethyl-quinolin-4-ylsulfanyl)-acetamide]: the IC50 at Rat NPY5 Receptor was more than 1000 nM.

Regarding `Cc1cc(C)c(CSCC(=O)Nc2ccc(C(=O)c3ccccc3)cc2)c(C)c1` [Compound 107, N-(4-Benzoyl-phenyl)-2-(2,4,6-trimethyl-benzylsulfanyl)-acetamide], the IC50 on Rat NPY5 Receptor was more than 1000 nM.

Consider `O=C(CSc1ncnc2ccccc12)Nc1ccc(C(=O)c2ccccc2)cc1` [Compound 82, N-(4-Benzoyl-phenyl)-2-(quinazolin-4-ylsulfanyl)-acetamide], for which, at Rat NPY5 Receptor, the IC50 was more than 1000 nM.

In the case of `COc1cccc(SCC(=O)Nc2ccc(C(=O)c3ccccc3)cc2)c1` [Compound 106, N-(4-Benzoyl-phenyl)-2-(3-methoxy-phenylsulfanyl)-acetamide], on Rat NPY5 Receptor, the IC50 was more than 1000 nM.

For `CN1CCC(OCC(=O)Nc2ccc(C3CCCCC3)cc2)CC1` [Compound 135, N-(4-Cyclohexyl-phenyl)-2-(1-methy-piperidin-4-yloxy)-acetamide], at Rat NPY5 Receptor, the IC50 was more than 1000 nM.

Take `Cn1nnnc1SCC(=O)Nc1nc2ccccc2s1` [Compound 128, N-Benzothiazol-2-yl-2-(1-methyl-1H-tetrazol-5-ylsulfanyl)-acetamide]: the IC50 at Rat NPY5 Receptor was more than 1000 nM.

As for `O=C(CSc1ccc2ccccc2n1)Nc1ccc(C(=O)c2ccccc2)cc1` [Compound 100, N-(4-Benzoyl-phenyl)-2-(quinolin-2-ylsulanyl)-acetamide], the IC50 on Rat NPY5 Receptor was more than 1000 nM.

In the case of `O=C(CSc1nnc(CSCCOc2ccc(Cl)cc2Cl)o1)Nc1ccc(C2CCCCC2)cc1` [Compound 117], on Rat NPY5 Receptor, the IC50 was more than 1000 nM.
